The assay deals with MDA-MB-231 cells. Nature of the assay: AlamarBlue Cell Viability Assay. It counts as cell-based, human. Conditions: MDA-MB-231, various concentrations, 24, 48 and 72 hours. (The colour change of resazurin is a common sign of viable cells or microbes.)

Each structure is given as a SMILES string.

Method: The cytotoxic effect of empty PBCA NPs, PBCA NPs with encapsulated cabazitaxel as well as free cabazitaxel was studied on breast cancer cells (MDA-MB-231 cells=human epithelial, mammary adenocarcinoma cell line). AlamarBlueR Cell Viability Assay was used to evaluate cell viability. Cells were seeded in density 5000 cells/200 μl medium for each well. After 3 days old medium was removed from wells and both encapsulated cabazitaxel and free cabazitaxel was diluted in medium and added to the well. Concentration of NPs was ranged from 0.1 ng/ml to 1000 ng/ml. Concentrations of free cabazitaxel was chosen to match the concentrations of cabazitaxel in NPs. Control wells contained cells in growth medium.
The well plates were incubated for 24, 48 and 72 hours at 37° C. and 5% CO2, before the medium was removed from the well followed by 3 times washing with fresh growth medium. Growth medium containing 10% of alamar Blue assay was added into each well and the plates incubated for another 3 hours at 37° C. and 5% CO2, and the fluorescence intensity measured by microplate reader (excitation/emission at 550/590 nm).

`CO[C@H]1C(=O)[C@]2(C)[C@@H](OC)C[C@H]3OC[C@@]3(OC(C)=O)[C@H]2[C@H](OC(=O)c2ccccc2)[C@]2(O)C[C@H](OC(=O)[C@H](O)[C@@H](NC(=O)OC(C)(C)C)c3ccccc3)C(C)=C1C2(C)C` [free cabazitaxel, cabazitaxel]: the “response of cell viability to treatment” value was “dose-responsive manner”.

For the origin of these results see patent US20200023073A1, “A NEW DRUG DELIVERY SYSTEM FOR TREATMENT OF DISEASE” (SINTEF TTO AS, priority 2016, published 2020).
